The values below are quoted from earlier work in patent US20090068143A1, “ORALLY EFFECTIVE C[…]” (priority 2005, published 2009).

The conditions of series [1]: oral administration, on an average; cited from earlier work.
The conditions of series [2]: in vivo; cited from earlier work.

Take `CCCCCc1cc(O)c2c(c1)OC(C)(C)[C@@H]1CCC(C)=C[C@@H]21` [Δ^9-THC, Δ^9-tetrahydrocannabinol]: the absolute bioavailability in series [1] was 13%.

B1: IFN-β-1b: beta interferon product to which patients develop NAbs (protein, UniProt P01574 22-187, looked up, variant C17S)
Interferon beta: MSYNLLGFLQRSSNFQSQKLLWQLNGRLEYCLKDRMNFDIPEEIKQLQQFQKEDAALTIYEMLQNIFAIFRQDSSSTGWNETIVENLLANVYHQINHLKTVLEEKLEKEDFTRGKLMSSLHLKRYYGRILHYLKAKEYSHCAWTIVRVEILRNFYFINRLTGYLRN
As for B1, in series [2], the “patients developing neutralizing antibodies (NAbs)” value is on record as “Twenty-eight to forty-seven”.
